Test results reported in patent US11279733B2, “Peptide antibiotics” (priority 2017, dated 2022).
Converted amounts (≈) assume the structure as drawn. Read-outs that look alike come from different tables or passages of the source. Positions of bridges follow the written chain, without caps; N, C: chain ends. Non-standard residues stand in square brackets, D forms with d. Residues, ends and D or L forms follow the SMILES beside them. *: point of attachment. Decanoyl(3R-OH) = CCCCCCC[C@@H](O)CC(=O)*; dBip = N[C@H](Cc1ccc(-c2ccccc2)cc1)C(=O)O; X11 = CCCCCCCNc1ccc(C(=O)*)cc1; dDab = NCC[C@@H](N)C(=O)O; Octanoyl = CCCCCCCC(=O)*; X8 = CC(C)CCCC(C)CC(=O)*; Dab = NCC[C@H](N)C(=O)O

How the values were obtained:
[1] = tested on: P. aeruginosa GN_105, PmxR; settings: GN 105, PmxR
Outline: (§1)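 Mid-log cultures grown in Mueller Hinton broth at 37° C were tested by 2-fold broth microdilution at 5×10^5 CFU/mL final. Compounds were dissolved in water and tested over a final range of 32 to 0.015 μg/mL.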

[2] = tested on: K. pneumoniae GN_102 PmxR; settings: GN 102 PmxR
Outline: as §1

[3] = tested on: P. aeruginosa ATCC 27853; settings: ATCC 27853
Outline: as §1

[4] = tested on: E. coli ATCC 25922; settings: ATCC 25922
Outline: as §1

[5] = tested on: A. baumannii GN_093 PmxR; settings: GN 093 PmxR
Outline: as §1

[6] = tested on: S. aureus ATCC 25923, MSSA; settings: ATCC 25923
Outline: as §1

[7] = tested on: P. aeruginosa GN_043, PmxR
Outline: as §1

[8] = tested on: K. pneumoniae GN_106, PmxR; settings: GN 106, PmxR
Outline: as §1

[9] = tested on: A. baumannii ATCC 19606; settings: ATCC 19606
Outline: as §1

[10] = tested on: K. pneumoniae ATCC 13883; settings: ATCC 13883
Outline: as §1

[11] = tested on: K. pneumoniae ATCC 700603, MDR; settings: ATCC 700603
Outline: as §1

[12] = tested on: K. pneumoniae ATCC BAA-2146, NDM-1 pos; settings: ATCC BAA-2146
Outline: as §1

[13] = in vitro; settings: human
Method: Cytotoxicity of the synthesised peptides was evaluated by comparison with commercially available colistin (polymyxin E), polymyxin B (Sigma chemical Co., St. Louis, Mo., U.S.A.) and synthetic octapeptin C4 by conducting lactate dehydrogenase (LDH) assay. CC50 values calculated based on curve fitting of dose dependent inhibition of cell growth represented the cytotoxicity of the peptide. Human kidney 2 (HK2) cells were seeded as 2000 cells per well in a 384 well cell culture plate in a final volume of 20 μL in DMEM/F12 medium (Invitrogen #11330057), in which 10% of FBS was added. Cells were incubated for 24 hours at 37° C., 5% CO2 to allow cells to attach to the plates. Similar conditions were employed for HEK293 and HepG2 cytotoxicity assays.
Colistin and polymyxin B were tested from a range of 2 mM to 0.9 μM. 120 μL of the 1 mM stock solutions in water of each synthesised peptide were freeze-dried and processed for LDH assay. After freeze-dry procedure, the compounds were reconstituted into 600 μM solutions using culture media. All tested compounds were diluted from 600 μM to 0.27 μM in 3-fold dilutions. Then 20 μL of each dilution was added into 20 uL of culture medium in quadruplicate to reach the final concentrations. The cells were incubated with the compounds for 24 h at 37° C., 5% CO2. After the incubation, 5 μL of culture medium was added to 50 μL of LDH assay buffer and incubated for 1 h at room temperature. The absorbance was read at 450 nm using Polarstar. The data was then analysed by Prism software. […] Nephrotoxicity Assessment in Human Proximal Tubule Cells.

| SMILES | MIC P. aeruginosa GN_105, PmxR [1] [mg/L] | MIC K. pneumoniae GN_102 PmxR [2] [mg/L] | MIC P. aeruginosa ATCC 27853 [3] [mg/L] | MIC E. coli ATCC 25922 [4] [mg/L] | MIC A. baumannii GN_093 PmxR [5] [mg/L] | MIC S. aureus ATCC 25923, MSSA [6] [mg/L] | MIC P. aeruginosa GN_043, PmxR ([7]; P. aeruginosa GN_043, PmxR) [mg/L] | MIC K. pneumoniae GN_106, PmxR [8] [mg/L] | MIC A. baumannii ATCC 19606 [9] [mg/L] | MIC K. pneumoniae ATCC 13883 [10] [mg/L] | MIC K. pneumoniae ATCC 700603, MDR [11] [mg/L] | MIC K. pneumoniae ATCC BAA-2146, NDM-1 pos [12] [mg/L] | CC50 at 24 h [13] [µM] | MIC P. aeruginosa GN_043, PmxR ([7]; polymyxin-resistant) [mg/L] |
| --- | --- | --- | --- | --- | --- | --- | --- | --- | --- | --- | --- | --- | --- | --- |
| CCCCCCC[C@@H](O)CC(=O)N[C@H](Cc1c[nH]c2ccccc12)C(=O)N[C@H]1CCNC(=O)[C@H]([C@@H](C)O)NC(=O)[C@H](CCN)NC(=O)[C@H](CCN)NC(=O)[C@H](CC(C)C)NC(=O)[C@@H](Cc2ccccc2)NC(=O)[C@H](CCN)NC1=O [compound 6394, 3(R)OH-nC9CO-D-Trp-cyc[L-Dab-L-Dab-D-Phe-L-Leu-L-Dab-L-Dab-L-Thr]] ({Decanoyl(3R-OH)}-[dW][Dab][Dab][dF]L[Dab][Dab]T; lactam 2-C) | >32 | >32 | 64 (≈ 57.2 µM) | >64 | >32 | >32 | >32 | >32 | >64 | >64 | >64 | >64 | > 300 | – |
| CCCCCCC[C@@H](O)CC(=O)N[C@H](CCN)C(=O)N[C@H]1CCNC(=O)[C@H](CC(=O)O)NC(=O)[C@H](CCN)NC(=O)[C@H](CCN)NC(=O)[C@H](CC(C)C)NC(=O)[C@@H](Cc2ccccc2)NC(=O)[C@H](CCN)NC1=O [compound 6513, 3(R)OH-nC9CO-D-Dab-cyc[L-Dab-L-Dab-D-Phe-L-Leu-L-Dab-L-Dab-L-Asp]] ({Decanoyl(3R-OH)}-[dDab][Dab][Dab][dF]L[Dab][Dab]D; lactam 2-C) | >32 | >32 | 4 (≈ 3.82 µM) | >64 | >32 | >32 | – | >32 | >64 | >64 | 64 (≈ 61.2 µM) | >64 | > 300 | 8 (≈ 7.65 µM) |
| CCCCCCCNc1ccc(C(=O)N[C@H](CCN)C(=O)N[C@H]2CCNC(=O)[C@H]([C@@H](C)O)NC(=O)[C@H](CCN)NC(=O)[C@H](CCN)NC(=O)[C@H](CC(C)C)NC(=O)[C@@H](Cc3ccccc3)NC(=O)[C@H](CCN)NC2=O)cc1 [compound 6403, 4(C7H15NH)PheCO-D-Dab-cyc[L-Dab-L-Dab-D-Phe-L-Leu-L-Dab-L-Dab-L-Thr]] (X11-[dDab][Dab][Dab][dF]L[Dab][Dab]T; lactam 2-C) | >32 | >32 | 16 (≈ 14.8 µM) | >64 | >32 | >32 | 32 (≈ 29.6 µM) | >32 | >64 | >64 | >64 | >64 | > 300 | – |
| CCCCCCC[C@@H](O)CC(=O)N[C@H](CCN)C(=O)N[C@H]1CCNC(=O)[C@H](CO)NC(=O)[C@H](CCN)NC(=O)[C@H](CCN)NC(=O)[C@H](CC(C)C)NC(=O)[C@@H](Cc2ccccc2)NC(=O)[C@H](CCN)NC1=O [compound 6510, 3(R)OH-nC9CO-D-Dab-cyc[L-Dab-L-Dab-D-Phe-L-Leu-L-Dab-L-Dab-L-Ser]] ({Decanoyl(3R-OH)}-[dDab][Dab][Dab][dF]L[Dab][Dab]S; lactam 2-C) | 16 (≈ 15.7 µM) | >32 | 1 (≈ 0.982 µM) | 1 (≈ 0.982 µM) | >32 | >64 | – | >32 | >64 | 64 (≈ 62.9 µM) | 4 (≈ 3.93 µM) | 4 (≈ 3.93 µM) | 149 | 1 (≈ 0.982 µM) |
| CCCCCCCC(=O)N[C@H](CCN)C(=O)N[C@H]1CCNC(=O)[C@H]([C@@H](C)O)NC(=O)[C@H](CCN)NC(=O)[C@H](CCN)NC(=O)[C@H](CC(C)C)NC(=O)[C@@H](Cc2ccccc2)NC(=O)[C@H](CCN)NC1=O [compound 6399, nC7CO-D-Dab-cyc[L-Dab-L-Dab-D-Phe-L-Leu-L-Dab-L-Dab-L-Thr]] (Octanoyl-[dDab][Dab][Dab][dF]L[Dab][Dab]T; lactam 2-C) | >32 | >32 | 1 (≈ 1.01 µM) | 8 (≈ 8.1 µM) | >32 | >32 | 8 (≈ 8.1 µM) | >32 | >32 | >32 | 16 (≈ 16.2 µM) | >32 | > 300 | – |
| CC(C)CCCC(C)CC(=O)N[C@H](CCN)C(=O)N[C@H]1CCNC(=O)[C@H](CC(C)C)NC(=O)[C@H](CCN)NC(=O)[C@H](CCN)NC(=O)[C@H](Cc2ccccc2)NC(=O)[C@@H](CC(C)C)NC(=O)[C@H](CCN)NC1=O (stereo partly drawn) [compound 6515, 3,7-dimethyloctanoic acid-D-Dab-cyc[L-Dab-L-Dab-D-Leu-L-Phe-L-Dab-L-Dab-L-Leu]] (X8-[dDab][Dab][Dab][dL]F[Dab][Dab]L; lactam 2-C) | 2 (≈ 1.94 µM) | 16 (≈ 15.6 µM) | 2 (≈ 1.94 µM) | 2 (≈ 1.94 µM) | 16 (≈ 15.6 µM) | 32 (≈ 31.1 µM) | 2 (≈ 1.94 µM) | 32 (≈ 31.1 µM) | >32 | 8 (≈ 7.78 µM) | 4 (≈ 3.89 µM) | 8 (≈ 7.78 µM) | 80 | – |
| CCCCCCC[C@@H](O)CC(=O)N[C@H](CCN)C(=O)N[C@H]1CCNC(=O)[C@H](CC(C)C)NC(=O)[C@H](CCN)NC(=O)[C@H](CCN)NC(=O)[C@H](C)NC(=O)[C@@H](Cc2ccccc2)NC(=O)[C@H](CCN)NC1=O [compound 4946, 3(R)OH-nC9CO-D-Dab-cyc[L-Dab-L-Dab-D-Phe-L-Ala-L-Dab-L-Dab-L-Leu]] ({Decanoyl(3R-OH)}-[dDab][Dab][Dab][dF]A[Dab][Dab]L; lactam 2-C) | 16 (≈ 16 µM) | 4 (≈ 3.99 µM) | 1 (≈ 0.998 µM) | 16 (≈ 16 µM) | 16 (≈ 16 µM) | >32 | 0.5 (≈ 0.499 µM) | 16 (≈ 16 µM) | 16 (≈ 16 µM) | 8 (≈ 7.98 µM) | 8 (≈ 7.98 µM) | 8 (≈ 7.98 µM) | 107 | – |
| CCCCCCC[C@@H](O)CC(=O)N[C@H](CCN)C(=O)N[C@H]1CCNC(=O)[C@H]([C@@H](C)O)NC(=O)[C@H](CCN)NC(=O)[C@H](CCN)NC(=O)[C@H](CC(C)C)NC(=O)[C@@H](Cc2ccc(-c3ccccc3)cc2)NC(=O)[C@H](CCN)NC1=O [compound 5608, 3(R)OH-nC9CO-D-Dab-cyc[L-Dab-L-Dab-D-Bip-L-Leu-L-Dab-L-Dab-L-Thr]] ({Decanoyl(3R-OH)}-[dDab][Dab][Dab][dBip]L[Dab][Dab]T; lactam 2-C) | 2 (≈ 1.8 µM) | 4 (≈ 3.61 µM) | 2 (≈ 1.8 µM) | 2 (≈ 1.8 µM) | 16 (≈ 14.4 µM) | 4 (≈ 3.61 µM) | 1 (≈ 0.902 µM) | 8 (≈ 7.22 µM) | 4 (≈ 3.61 µM) | 2 (≈ 1.8 µM) | 2 (≈ 1.8 µM) | 2 (≈ 1.8 µM) | 37 | – |
